Values of other authors as cited in patent US20220401207A1, “DEVICES, SYSTEMS, AND METHODS FOR TREATMENT OF DUCT OCCLUSION” (Purdue Research Foundation, priority 2021, published 2022).

Tests used:
gall bladder = settings: opossums, CCK infused into the body
cancerous mass = settings: drug-eluting stent, drug comprises gemcitabine
[1] = system: bacteria isolated from bile; settings: number of bile cultures, N-acetyl-cysteine n = 12, co-trimoxazole n = 10

Compound | Bile samples cultured with Clostridium species [1] | Bile samples cultured with Enterobacter species [1] | Bile samples cultured with Enterococcus species [1] | Bile samples cultured with K. oxytoca [1] | Bile samples cultured with K. pneumonia [1] | Bile samples cultured with Klebsiella species [1] | other results
cholecystokinin [CCK] |  |  |  |  |  |  | Compliance (and thus the pressure) of the gall bladder (gall bladder): drops
Nc1ccn([C@@H]2O[C@H](CO)[C@@H](O)C2(F)F)c(=O)n1 [gemcitabine] |  |  |  |  |  |  | Life span of subjects (cancerous mass): increased life spans; Tumor size (cancerous mass): decreased tumor size
CC(=O)N[C@@H](CS)C(=O)O [N-acetyl-cysteine] | 5 | 6 | 10 | 5 | 3 | 8 | Bile samples cultured with Citrobacter freundii [1]: 1; Bile samples cultured with Proteus species [1]: 1; Bile samples cultured with Escherichia coli ([1]; **p < 0.05): 6; Bile samples cultured with Streptococcus species ([1]; **p < 0.05): 4
Co-trimoxazole | 2 | 2 | 6 | 1 | 4 | 5 | Bile samples cultured with Bacteroides fragilis [1]: 1; Bile samples cultured with Candida species [1]: 2; Bile samples cultured with Pseudomonas aeruginosa [1]: 1; Bile samples cultured with Staphylococcus epidermidis [1]: 1
